Ends that are not written are not given here.
What was measured:
[1] = system: antibodies in sera from HCV-seropositive donors; assay: ELISA with HCV antibody-positive sera (biotinylated peptides on streptavidin- or avidin-coated plates, unbiotinylated peptides coated directly); type: binding, human
How it was run: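 Read-out is OD at 450 nm after HRP goat anti-human Ig and TMB development, following 1 h at 37° C. with seropositive or negative sera diluted 1:100 (or 20-fold). Antigen was either unbiotinylated peptide adsorbed on plastic (pH 9.6 carbonate, 2–5 or 3 μg/ml) or biotinylated peptide at 1 μg/ml captured on streptavidin-coated wells, with casein blocking.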

[2] = ELISA with seronegative / negative control sera (specificity); type: binding, human
How it was run: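 Specificity readout is OD at 450 nm (HRP goat anti-human Ig, TMB/H2O2, sulfuric acid stop), with ≥0.250 counted positive. Seronegative donor sera (typically 1:100, 1 h, 37° C) were applied to casein-blocked wells coated with peptide directly or via streptavidin capture of biotinylated peptide.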

PQRKTKRNTNRRPQDVKFPG
optical density (450 nm) ([1]; Table 4C, serum 8241, 20-fold dilution): 0.444
optical density (450 nm) ([1]; Table 4C, serum 8242, 20-fold dilution): 1.682
optical density (450 nm) ([1]; Table 4C, serum 8243, 20-fold dilution): 2.181
optical density (450 nm) ([1]; Table 4C, serum 8247, 20-fold dilution): 1.518
optical density (450 nm) ([1]; Table 4C, serum 8250, 20-fold dilution): 0.110
optical density (450 nm) ([1]; Table 4C, serum 8271, 20-fold dilution): 0.912
optical density (450 nm) ([1]; Table 4C, serum 8273, 20-fold dilution): 2.468
optical density (450 nm) ([1]; Table 4C, serum 8274, 20-fold dilution): 2.700
optical density (450 nm) ([1]; Table 4C, serum 8275, 20-fold dilution): 1.489
optical density (450 nm) ([1]; Table 4C, serum 8276, 20-fold dilution): 2.133
optical density (450 nm) ([1]; Table 4C, serum 8277, 20-fold dilution): 1.771
optical density (450 nm) ([1]; Table 4C, serum 8278, 20-fold dilution): 1.907
optical density (450 nm) ([1]; Table 5, sample 8242 (positive), peptide concentration 0.01 micrograms per milliliter, listed as Unbiotinylated HCV peptide II): 0.051
optical density (450 nm) ([1]; Table 5, sample 8242 (positive), peptide concentration 0.03 micrograms per milliliter, listed as Unbiotinylated HCV peptide II): 0.048
optical density (450 nm) ([1]; Table 5, sample 8242 (positive), peptide concentration 0.1 micrograms per milliliter, listed as Unbiotinylated HCV peptide II): 0.058
optical density (450 nm) ([1]; Table 5, sample 8242 (positive), peptide concentration 0.3 micrograms per milliliter, listed as Unbiotinylated HCV peptide II): 0.234
optical density (450 nm) ([1]; Table 5, sample 8242 (positive), peptide concentration 1.0 micrograms per milliliter, listed as Unbiotinylated HCV peptide II): 0.408
optical density (450 nm) ([1]; Table 5, sample 8242 (positive), peptide concentration 3.0 micrograms per milliliter, listed as Unbiotinylated HCV peptide II): 0.539
optical density (450 nm) ([1]; Table 5, sample 8243 (positive), peptide concentration 0.01 micrograms per milliliter, listed as Unbiotinylated HCV peptide II): 0.056
optical density (450 nm) ([1]; Table 5, sample 8243 (positive), peptide concentration 0.03 micrograms per milliliter, listed as Unbiotinylated HCV peptide II): 0.057
optical density (450 nm) ([1]; Table 5, sample 8243 (positive), peptide concentration 0.1 micrograms per milliliter, listed as Unbiotinylated HCV peptide II): 0.181
optical density (450 nm) ([1]; Table 5, sample 8243 (positive), peptide concentration 0.3 micrograms per milliliter, listed as Unbiotinylated HCV peptide II): 0.831
optical density (450 nm) ([1]; Table 5, sample 8243 (positive), peptide concentration 1.0 micrograms per milliliter, listed as Unbiotinylated HCV peptide II): 1.221
optical density (450 nm) ([1]; Table 5, sample 8243 (positive), peptide concentration 3.0 micrograms per milliliter, listed as Unbiotinylated HCV peptide II): 1.341
optical density (450 nm) ([1]; Table 5, sample 8318 (positive), peptide concentration 0.01 micrograms per milliliter, listed as Unbiotinylated HCV peptide II): 0.048
optical density (450 nm) ([1]; Table 5, sample 8318 (positive), peptide concentration 0.03 micrograms per milliliter, listed as Unbiotinylated HCV peptide II): 0.095
optical density (450 nm) ([1]; Table 5, sample 8318 (positive), peptide concentration 0.1 micrograms per milliliter, listed as Unbiotinylated HCV peptide II): 0.181
optical density (450 nm) ([1]; Table 5, sample 8318 (positive), peptide concentration 0.3 micrograms per milliliter, listed as Unbiotinylated HCV peptide II): 0.347
optical density (450 nm) ([1]; Table 5, sample 8318 (positive), peptide concentration 1.0 micrograms per milliliter, listed as Unbiotinylated HCV peptide II): 0.626
optical density (450 nm) ([1]; Table 5, sample 8318 (positive), peptide concentration 3.0 micrograms per milliliter, listed as Unbiotinylated HCV peptide II): 0.791
optical density (450 nm) ([1]; Table 5, sample 8320 (positive), peptide concentration 0.01 micrograms per milliliter, listed as Unbiotinylated HCV peptide II): 0.479
optical density (450 nm) ([1]; Table 5, sample 8320 (positive), peptide concentration 0.03 micrograms per milliliter, listed as Unbiotinylated HCV peptide II): 1.272
optical density (450 nm) ([1]; Table 5, sample 8320 (positive), peptide concentration 0.1 micrograms per milliliter, listed as Unbiotinylated HCV peptide II): 1.828
optical density (450 nm) ([1]; Table 5, sample 8320 (positive), peptide concentration 0.3 micrograms per milliliter, listed as Unbiotinylated HCV peptide II): 2.004
optical density (450 nm) ([1]; Table 5, sample 8320 (positive), peptide concentration 1.0 micrograms per milliliter, listed as Unbiotinylated HCV peptide II): 2.163
optical density (450 nm) ([1]; Table 5, sample 8320 (positive), peptide concentration 3.0 micrograms per milliliter, listed as Unbiotinylated HCV peptide II): 2.278
optical density (450 nm) ([2]; Table 4C, negative serum): 0.047
optical density (450 nm) ([2]; Table 5, sample 1747 (negative), peptide concentration 0.01 micrograms per milliliter, listed as Unbiotinylated HCV peptide II): 0.041
optical density (450 nm) ([2]; Table 5, sample 1747 (negative), peptide concentration 0.03 micrograms per milliliter, listed as Unbiotinylated HCV peptide II): 0.043
optical density (450 nm) ([2]; Table 5, sample 1747 (negative), peptide concentration 0.1 micrograms per milliliter, listed as Unbiotinylated HCV peptide II): 0.044
optical density (450 nm) ([2]; Table 5, sample 1747 (negative), peptide concentration 0.3 micrograms per milliliter, listed as Unbiotinylated HCV peptide II): 0.041
optical density (450 nm) ([2]; Table 5, sample 1747 (negative), peptide concentration 1.0 micrograms per milliliter, listed as Unbiotinylated HCV peptide II): 0.046
optical density (450 nm) ([2]; Table 5, sample 1747 (negative), peptide concentration 3.0 micrograms per milliliter, listed as Unbiotinylated HCV peptide II): 0.049
optical density (450 nm) ([2]; Table 5, sample 1781 (negative), peptide concentration 0.01 micrograms per milliliter, listed as Unbiotinylated HCV peptide II): 0.046
optical density (450 nm) ([2]; Table 5, sample 1781 (negative), peptide concentration 0.03 micrograms per milliliter, listed as Unbiotinylated HCV peptide II): 0.053
optical density (450 nm) ([2]; Table 5, sample 1781 (negative), peptide concentration 0.1 micrograms per milliliter, listed as Unbiotinylated HCV peptide II): 0.046
optical density (450 nm) ([2]; Table 5, sample 1781 (negative), peptide concentration 0.3 micrograms per milliliter, listed as Unbiotinylated HCV peptide II): 0.045
optical density (450 nm) ([2]; Table 5, sample 1781 (negative), peptide concentration 1.0 micrograms per milliliter, listed as Unbiotinylated HCV peptide II): 0.053
optical density (450 nm) ([2]; Table 5, sample 1781 (negative), peptide concentration 3.0 micrograms per milliliter, listed as Unbiotinylated HCV peptide II): 0.053

IIPDREVLYREFDEMEECSQ
optical density (450 nm) ([1]; Table 4F, serum 8315, 20-fold dilution): 2.614
optical density (450 nm) ([1]; Table 4F, serum 8316, 20-fold dilution): 0.133
optical density (450 nm) ([1]; Table 4F, serum 8317, 20-fold dilution): 0.855
optical density (450 nm) ([1]; Table 4F, serum 8318, 20-fold dilution): 1.965
optical density (450 nm) ([1]; Table 4F, serum 8320, 20-fold dilution): 0.721
optical density (450 nm) ([1]; Table 4F, serum 8321, 20-fold dilution): 0.283
optical density (450 nm) ([1]; Table 4F, serum 8326, 20-fold dilution): 2.219
optical density (450 nm) ([1]; Table 5, sample 8242 (positive), peptide concentration 0.01 micrograms per milliliter, listed as Unbiotinylated HCV peptide IX): 0.049
optical density (450 nm) ([1]; Table 5, sample 8242 (positive), peptide concentration 0.03 micrograms per milliliter, listed as Unbiotinylated HCV peptide IX): 0.047
optical density (450 nm) ([1]; Table 5, sample 8242 (positive), peptide concentration 0.1 micrograms per milliliter, listed as Unbiotinylated HCV peptide IX): 0.046
optical density (450 nm) ([1]; Table 5, sample 8242 (positive), peptide concentration 0.3 micrograms per milliliter, listed as Unbiotinylated HCV peptide IX): 0.048
optical density (450 nm) ([1]; Table 5, sample 8242 (positive), peptide concentration 1.0 micrograms per milliliter, listed as Unbiotinylated HCV peptide IX): 0.052
optical density (450 nm) ([1]; Table 5, sample 8242 (positive), peptide concentration 3.0 micrograms per milliliter, listed as Unbiotinylated HCV peptide IX): 0.059
optical density (450 nm) ([1]; Table 5, sample 8243 (positive), peptide concentration 0.01 micrograms per milliliter, listed as Unbiotinylated HCV peptide IX): 0.054
optical density (450 nm) ([1]; Table 5, sample 8243 (positive), peptide concentration 0.03 micrograms per milliliter, listed as Unbiotinylated HCV peptide IX): 0.051
optical density (450 nm) ([1]; Table 5, sample 8243 (positive), peptide concentration 0.1 micrograms per milliliter, listed as Unbiotinylated HCV peptide IX): 0.051
optical density (450 nm) ([1]; Table 5, sample 8243 (positive), peptide concentration 0.3 micrograms per milliliter, listed as Unbiotinylated HCV peptide IX): 0.051
optical density (450 nm) ([1]; Table 5, sample 8243 (positive), peptide concentration 1.0 micrograms per milliliter, listed as Unbiotinylated HCV peptide IX): 0.053
optical density (450 nm) ([1]; Table 5, sample 8243 (positive), peptide concentration 3.0 micrograms per milliliter, listed as Unbiotinylated HCV peptide IX): 0.063
optical density (450 nm) ([1]; Table 5, sample 8320 (positive), peptide concentration 0.01 micrograms per milliliter, listed as Unbiotinylated HCV peptide IX): 0.059
optical density (450 nm) ([1]; Table 5, sample 8320 (positive), peptide concentration 0.03 micrograms per milliliter, listed as Unbiotinylated HCV peptide IX): 0.057
optical density (450 nm) ([1]; Table 5, sample 8320 (positive), peptide concentration 0.1 micrograms per milliliter, listed as Unbiotinylated HCV peptide IX): 0.063
optical density (450 nm) ([1]; Table 5, sample 8320 (positive), peptide concentration 0.3 micrograms per milliliter, listed as Unbiotinylated HCV peptide IX): 0.122
optical density (450 nm) ([1]; Table 5, sample 8320 (positive), peptide concentration 1.0 micrograms per milliliter, listed as Unbiotinylated HCV peptide IX): 0.093
optical density (450 nm) ([1]; Table 5, sample 8320 (positive), peptide concentration 3.0 micrograms per milliliter, listed as Unbiotinylated HCV peptide IX): 0.129
optical density (450 nm) ([1]; Table 5, sample 8326 (positive), peptide concentration 0.01 micrograms per milliliter, listed as Unbiotinylated HCV peptide IX): 0.049
optical density (450 nm) ([1]; Table 5, sample 8326 (positive), peptide concentration 0.03 micrograms per milliliter, listed as Unbiotinylated HCV peptide IX): 0.051
optical density (450 nm) ([1]; Table 5, sample 8326 (positive), peptide concentration 0.1 micrograms per milliliter, listed as Unbiotinylated HCV peptide IX): 0.068
optical density (450 nm) ([1]; Table 5, sample 8326 (positive), peptide concentration 0.3 micrograms per milliliter, listed as Unbiotinylated HCV peptide IX): 0.078
optical density (450 nm) ([1]; Table 5, sample 8326 (positive), peptide concentration 1.0 micrograms per milliliter, listed as Unbiotinylated HCV peptide IX): 0.068
optical density (450 nm) ([1]; Table 5, sample 8326 (positive), peptide concentration 3.0 micrograms per milliliter, listed as Unbiotinylated HCV peptide IX): 0.084
optical density (450 nm) ([2]; Table 4F, negative serum): 0.052
optical density (450 nm) ([2]; Table 5, sample 1747 (negative), peptide concentration 0.01 micrograms per milliliter, listed as Unbiotinylated HCV peptide IX): 0.045
optical density (450 nm) ([2]; Table 5, sample 1747 (negative), peptide concentration 0.03 micrograms per milliliter, listed as Unbiotinylated HCV peptide IX): 0.045
optical density (450 nm) ([2]; Table 5, sample 1747 (negative), peptide concentration 0.1 micrograms per milliliter, listed as Unbiotinylated HCV peptide IX): 0.045
optical density (450 nm) ([2]; Table 5, sample 1747 (negative), peptide concentration 0.3 micrograms per milliliter, listed as Unbiotinylated HCV peptide IX): 0.044
optical density (450 nm) ([2]; Table 5, sample 1747 (negative), peptide concentration 1.0 micrograms per milliliter, listed as Unbiotinylated HCV peptide IX): 0.046
optical density (450 nm) ([2]; Table 5, sample 1747 (negative), peptide concentration 3.0 micrograms per milliliter, listed as Unbiotinylated HCV peptide IX): 0.046
optical density (450 nm) ([2]; Table 5, sample 1781 (negative), peptide concentration 0.01 micrograms per milliliter, listed as Unbiotinylated HCV peptide IX): 0.051
optical density (450 nm) ([2]; Table 5, sample 1781 (negative), peptide concentration 0.03 micrograms per milliliter, listed as Unbiotinylated HCV peptide IX): 0.049
optical density (450 nm) ([2]; Table 5, sample 1781 (negative), peptide concentration 0.1 micrograms per milliliter, listed as Unbiotinylated HCV peptide IX): 0.052
optical density (450 nm) ([2]; Table 5, sample 1781 (negative), peptide concentration 0.3 micrograms per milliliter): 0.051
optical density (450 nm) ([2]; Table 5, sample 1781 (negative), peptide concentration 1.0 micrograms per milliliter, listed as Unbiotinylated HCV peptide IX): 0.052
optical density (450 nm) ([2]; Table 5, sample 1781 (negative), peptide concentration 3.0 micrograms per milliliter): 0.053
